Measurements taken from ChEMBL document CHEMBL1201862, “PubChem BioAssay data set” (2004).
Calls of active or inactive are those of the source.

Key:
[1] = LGR2 antagonists, dose response, cell-based, HEK293, CRE-luciferase reporter, cherry pick, set 2 (AID 743343); type: functional;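 also: transfected cells were stimulated with diluted bursicon conditioned medium after compound addition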
[2] = MC4R antagonists, dose response, counter-screen for LGR2 antagonist project, cell-based, plate reader, cherry pick (AID 743444); type: functional;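 also: transfected HEK 293 cells stimulated with alpha-MSH peptide; potency of inhibitors of the alpha-MSH evoked signal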
H9c2 = assay: cells; type: functional, cell-based; conditions: Rattus norvegicus, H9c2, Myocardium;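 also: confirmatory concentration-response retest of ultra-high-throughput screening hits for modulation of myocardial damage; cell death induced by hydrogen peroxide oxidative stress; compound pretreatment for 60 min then peroxide exposure for 2 h; potency is for protecting the cells against peroxide damage rather than for killing them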
Caspase-3 = biological target: T1, Caspase-3 (Homo sapiens, UniProt P42574); type: functional;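 also: Dose-response selectivity test against caspase-3 for candidate inhibitors of sentrin-specific proteases (SENPs)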
T1 sequence (P42574 whole entry): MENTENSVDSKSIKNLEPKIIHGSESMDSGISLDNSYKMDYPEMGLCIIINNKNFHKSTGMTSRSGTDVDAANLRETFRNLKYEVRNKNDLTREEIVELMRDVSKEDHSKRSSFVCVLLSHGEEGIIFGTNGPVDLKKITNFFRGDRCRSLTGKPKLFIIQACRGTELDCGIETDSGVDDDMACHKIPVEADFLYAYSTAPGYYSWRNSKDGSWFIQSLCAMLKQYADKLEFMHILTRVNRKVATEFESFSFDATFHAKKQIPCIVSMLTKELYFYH

[3] = biological target: T2, Sentrin-specific protease 6 (Homo sapiens, UniProt Q9GZR1); type: functional;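 also: Luminescence-based dose-response confirmatory assay of SENP6 inhibition, following up an ultra-high-throughput screen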
T2 sequence (Q9GZR1 whole entry): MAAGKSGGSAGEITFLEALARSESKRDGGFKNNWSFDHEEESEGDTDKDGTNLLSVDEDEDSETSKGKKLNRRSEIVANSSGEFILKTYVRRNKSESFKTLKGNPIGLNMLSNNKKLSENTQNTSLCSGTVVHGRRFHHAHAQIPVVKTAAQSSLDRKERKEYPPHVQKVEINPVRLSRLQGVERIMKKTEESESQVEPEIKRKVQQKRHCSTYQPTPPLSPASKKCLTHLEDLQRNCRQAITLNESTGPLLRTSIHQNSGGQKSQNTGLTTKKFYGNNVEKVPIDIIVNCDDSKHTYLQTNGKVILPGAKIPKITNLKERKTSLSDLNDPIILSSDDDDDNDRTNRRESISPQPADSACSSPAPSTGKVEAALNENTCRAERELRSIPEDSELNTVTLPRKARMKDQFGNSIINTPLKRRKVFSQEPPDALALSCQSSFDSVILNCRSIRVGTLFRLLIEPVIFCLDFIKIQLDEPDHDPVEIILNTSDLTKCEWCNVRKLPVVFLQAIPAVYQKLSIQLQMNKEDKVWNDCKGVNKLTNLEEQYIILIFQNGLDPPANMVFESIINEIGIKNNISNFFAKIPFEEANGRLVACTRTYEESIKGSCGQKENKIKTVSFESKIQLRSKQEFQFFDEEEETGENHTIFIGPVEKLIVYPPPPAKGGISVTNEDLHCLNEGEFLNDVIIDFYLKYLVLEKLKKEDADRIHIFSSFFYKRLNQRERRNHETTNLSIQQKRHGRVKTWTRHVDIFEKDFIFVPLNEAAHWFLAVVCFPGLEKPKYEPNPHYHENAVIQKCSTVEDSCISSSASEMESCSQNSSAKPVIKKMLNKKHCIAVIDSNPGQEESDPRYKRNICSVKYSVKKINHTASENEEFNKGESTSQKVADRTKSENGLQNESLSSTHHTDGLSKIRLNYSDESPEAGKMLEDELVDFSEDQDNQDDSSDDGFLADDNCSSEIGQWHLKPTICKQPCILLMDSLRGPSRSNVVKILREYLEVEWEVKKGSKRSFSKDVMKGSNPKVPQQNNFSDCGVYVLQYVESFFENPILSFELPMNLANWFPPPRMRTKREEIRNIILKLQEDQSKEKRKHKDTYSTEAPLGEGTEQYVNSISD

[4] = biological target: T3, Sentrin-specific protease 7 (Homo sapiens, UniProt Q9BQF6); type: functional;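 also: Luminescence-based dose-response confirmation of ultra-high-throughput screening hits, measuring inhibition of SENP7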
T3 sequence (Q9BQF6 whole entry): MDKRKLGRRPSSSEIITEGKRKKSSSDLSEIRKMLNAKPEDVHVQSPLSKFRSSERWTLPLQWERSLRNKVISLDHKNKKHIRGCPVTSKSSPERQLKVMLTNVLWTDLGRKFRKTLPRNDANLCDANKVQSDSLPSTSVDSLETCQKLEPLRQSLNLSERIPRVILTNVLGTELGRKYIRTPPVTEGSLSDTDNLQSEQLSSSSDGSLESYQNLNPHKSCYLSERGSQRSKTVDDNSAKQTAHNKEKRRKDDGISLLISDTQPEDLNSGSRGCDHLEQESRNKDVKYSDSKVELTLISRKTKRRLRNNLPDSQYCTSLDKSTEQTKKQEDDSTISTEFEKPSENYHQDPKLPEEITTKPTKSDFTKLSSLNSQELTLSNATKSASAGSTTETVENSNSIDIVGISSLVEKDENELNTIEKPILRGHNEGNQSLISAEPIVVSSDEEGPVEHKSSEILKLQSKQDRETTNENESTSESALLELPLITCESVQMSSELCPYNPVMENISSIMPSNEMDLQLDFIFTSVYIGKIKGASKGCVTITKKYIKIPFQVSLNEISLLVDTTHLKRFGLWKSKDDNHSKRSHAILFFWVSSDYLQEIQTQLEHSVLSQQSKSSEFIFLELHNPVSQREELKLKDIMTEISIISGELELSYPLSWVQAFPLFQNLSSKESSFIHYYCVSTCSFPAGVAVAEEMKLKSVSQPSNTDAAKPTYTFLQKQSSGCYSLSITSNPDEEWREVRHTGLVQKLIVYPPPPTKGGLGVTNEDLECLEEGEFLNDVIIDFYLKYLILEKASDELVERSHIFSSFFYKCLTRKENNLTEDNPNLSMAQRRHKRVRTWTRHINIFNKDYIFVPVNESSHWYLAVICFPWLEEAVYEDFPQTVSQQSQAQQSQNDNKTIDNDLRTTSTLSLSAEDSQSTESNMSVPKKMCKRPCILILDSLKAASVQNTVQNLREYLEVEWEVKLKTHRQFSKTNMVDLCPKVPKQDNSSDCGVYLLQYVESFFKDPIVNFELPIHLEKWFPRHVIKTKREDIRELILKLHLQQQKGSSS

[5] = biological target: T4, Sentrin-specific protease 8 (Homo sapiens, UniProt Q96LD8); type: functional;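 also: luminescence read-out of SENP8 inhibition, dose-response confirmation following an ultra-high-throughput screen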
T4 sequence (Q96LD8 whole entry): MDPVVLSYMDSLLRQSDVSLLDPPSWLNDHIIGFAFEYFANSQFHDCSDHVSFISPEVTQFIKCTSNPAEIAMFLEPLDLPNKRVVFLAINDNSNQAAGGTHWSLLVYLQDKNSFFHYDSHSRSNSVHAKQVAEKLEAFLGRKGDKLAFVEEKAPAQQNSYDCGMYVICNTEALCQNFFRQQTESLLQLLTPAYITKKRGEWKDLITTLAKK

[6] = biological target: T5, Replicative DNA helicase DnaB (Mycobacterium tuberculosis, UniProt P9WMR3); assay: DnaB intein splicing inhibitors, dose response, biochemical, cell-free fluorescence (AID 449749); type: functional
T5 sequence (P9WMR3 whole entry): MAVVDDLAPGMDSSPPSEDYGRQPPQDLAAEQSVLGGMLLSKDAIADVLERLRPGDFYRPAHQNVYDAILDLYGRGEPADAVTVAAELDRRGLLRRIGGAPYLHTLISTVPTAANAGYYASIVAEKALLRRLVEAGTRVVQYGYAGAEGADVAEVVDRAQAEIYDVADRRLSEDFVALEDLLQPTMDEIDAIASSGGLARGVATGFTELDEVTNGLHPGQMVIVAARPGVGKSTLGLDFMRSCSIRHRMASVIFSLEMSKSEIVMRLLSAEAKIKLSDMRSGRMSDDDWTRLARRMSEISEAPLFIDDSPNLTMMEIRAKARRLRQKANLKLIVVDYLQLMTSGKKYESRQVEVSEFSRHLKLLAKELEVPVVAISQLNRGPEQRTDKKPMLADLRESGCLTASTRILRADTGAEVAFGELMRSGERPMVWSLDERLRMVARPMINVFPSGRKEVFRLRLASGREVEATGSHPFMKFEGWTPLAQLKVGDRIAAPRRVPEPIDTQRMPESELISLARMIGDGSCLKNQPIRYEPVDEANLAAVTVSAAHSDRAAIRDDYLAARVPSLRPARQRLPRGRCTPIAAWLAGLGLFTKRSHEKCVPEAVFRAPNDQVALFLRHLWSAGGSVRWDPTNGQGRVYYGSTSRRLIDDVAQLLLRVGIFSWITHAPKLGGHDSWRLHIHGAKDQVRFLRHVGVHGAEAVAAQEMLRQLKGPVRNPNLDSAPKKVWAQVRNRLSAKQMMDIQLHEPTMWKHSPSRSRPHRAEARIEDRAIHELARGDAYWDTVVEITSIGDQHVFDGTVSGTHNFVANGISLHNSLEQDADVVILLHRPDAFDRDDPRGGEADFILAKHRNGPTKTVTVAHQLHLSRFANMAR

[7] = biological target: T6, Mannose-6-phosphate isomerase (Homo sapiens, UniProt P34949); assay: human PMI inhibitors, high substrate, primary screen, biochemical, fluorescence intensity, high mannose 6-phosphate (AID 1220)
T6 sequence (P34949 whole entry): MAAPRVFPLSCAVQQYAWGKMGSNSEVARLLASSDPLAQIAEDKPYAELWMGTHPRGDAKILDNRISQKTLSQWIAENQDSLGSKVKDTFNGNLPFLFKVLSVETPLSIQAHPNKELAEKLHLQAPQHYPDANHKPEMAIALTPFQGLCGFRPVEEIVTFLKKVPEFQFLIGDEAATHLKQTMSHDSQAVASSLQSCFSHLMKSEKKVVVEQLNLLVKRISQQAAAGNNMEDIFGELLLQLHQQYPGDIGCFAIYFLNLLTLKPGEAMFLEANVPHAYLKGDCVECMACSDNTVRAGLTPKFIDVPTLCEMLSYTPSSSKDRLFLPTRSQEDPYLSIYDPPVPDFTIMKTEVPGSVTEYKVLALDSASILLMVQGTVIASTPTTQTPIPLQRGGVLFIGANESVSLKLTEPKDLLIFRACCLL

Protein RecA = biological target: T7, Protein RecA (Mycobacterium tuberculosis, UniProt P9WHJ3); assay: Fluorescence Cell-Free Homogeneous Dose Retest to Identify Inhibitors of RecA-Intein Splicing Activity. [Related pubchem assays (depositor defined):AID2097, AID2223, AID489010, AID492950]; type: functional
T7 sequence (P9WHJ3 whole entry): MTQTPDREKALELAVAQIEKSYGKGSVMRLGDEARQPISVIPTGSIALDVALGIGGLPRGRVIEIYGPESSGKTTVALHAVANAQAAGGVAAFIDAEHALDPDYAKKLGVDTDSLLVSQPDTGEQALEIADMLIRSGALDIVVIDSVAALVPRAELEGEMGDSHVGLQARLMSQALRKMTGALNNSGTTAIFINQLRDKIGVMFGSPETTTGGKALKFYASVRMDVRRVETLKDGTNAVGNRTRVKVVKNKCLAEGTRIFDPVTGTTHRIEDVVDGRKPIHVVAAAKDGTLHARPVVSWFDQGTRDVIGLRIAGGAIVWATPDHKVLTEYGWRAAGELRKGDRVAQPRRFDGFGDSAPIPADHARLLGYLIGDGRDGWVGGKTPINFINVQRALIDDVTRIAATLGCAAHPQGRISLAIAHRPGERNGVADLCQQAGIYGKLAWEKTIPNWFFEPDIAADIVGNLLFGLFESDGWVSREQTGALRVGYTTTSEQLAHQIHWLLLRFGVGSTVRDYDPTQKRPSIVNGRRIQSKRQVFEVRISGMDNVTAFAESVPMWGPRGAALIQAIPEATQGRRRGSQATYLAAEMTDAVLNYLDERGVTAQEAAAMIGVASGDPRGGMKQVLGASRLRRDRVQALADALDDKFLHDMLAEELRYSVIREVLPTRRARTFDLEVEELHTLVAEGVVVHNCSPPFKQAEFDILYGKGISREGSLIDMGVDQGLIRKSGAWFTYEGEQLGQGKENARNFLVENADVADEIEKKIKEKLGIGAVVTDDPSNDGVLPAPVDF

[8] = biological target: T8, Heat shock factor protein 1 (Mus musculus, UniProt P38532); assay: HSF1 potentiators in luciferase reporter cells, confirmation, cell-based, NIH3T3, luminescence, dose retest (AID 435004); type: functional;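 also: stress induced by proteasome inhibitor MG132 added 30 min after compound; luciferase reporter driven by HSF1 response element in NIH3T3 cells; actives raise luminescence as potentiators of the MG132 stress response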
T8 sequence (P38532 whole entry): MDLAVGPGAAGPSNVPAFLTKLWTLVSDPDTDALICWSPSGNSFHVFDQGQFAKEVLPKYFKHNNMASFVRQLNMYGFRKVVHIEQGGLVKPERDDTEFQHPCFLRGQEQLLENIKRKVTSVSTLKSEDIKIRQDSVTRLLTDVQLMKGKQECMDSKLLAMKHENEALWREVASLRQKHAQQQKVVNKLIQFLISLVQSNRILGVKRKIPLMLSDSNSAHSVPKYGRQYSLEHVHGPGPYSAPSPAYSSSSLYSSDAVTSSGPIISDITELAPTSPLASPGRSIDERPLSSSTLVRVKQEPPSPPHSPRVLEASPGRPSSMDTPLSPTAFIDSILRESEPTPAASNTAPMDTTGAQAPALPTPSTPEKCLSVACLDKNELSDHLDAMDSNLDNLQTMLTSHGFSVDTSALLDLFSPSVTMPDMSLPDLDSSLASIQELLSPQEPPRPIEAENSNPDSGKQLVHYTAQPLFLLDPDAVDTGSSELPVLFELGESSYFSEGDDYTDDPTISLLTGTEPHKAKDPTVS

Row | SMILES | IC50 (Caspase-3) | IC50 [3] | IC50 [4] | IC50 [5] | IC50 [7] | further results
1 | COc1cc(NC(=O)c2cccc3c(-c4cnn(C)c4)coc23)cc(OC)c1OC |  |  |  |  |  | AC50 [1]: 24.3 µM (active); AC50 [2]: 17.9 µM (active); IC50 (H9c2): > 79 µM (inactive)
2 | O=C(O)c1cccc(NC(=O)c2cccc(S(=O)(=O)N3CCc4ccccc43)c2)c1 | 90.5 µM (active) | 23.7 µM (active) | 9.85 µM (active) | 24.4 µM (active) |  | 
3 | Cc1ccc(C(=O)N/N=C/c2ccc(-c3ccccc3[N+](=O)[O-])o2)cn1 |  |  |  |  | > 50 µM (not active) | AC50 [6]: 30.6 µM (active); EC50 (Protein RecA): 13.5 µM (active)
4 | CCOc1ccc(-n2nc3cc(C)c(N)cc3n2)cc1 | 7.93 µM (active) | 6.21 µM (active) | 2.94 µM (active) | 59.3 µM (active) |  | 
5 | Cc1ccc(S(=O)(=O)N(C)C)cc1NC(S)=Nc1ccc2c[nH]nc2c1 |  |  |  |  | > 50 µM (not active) | 
6 | NC(=O)c1ccccc1OCC(=O)Nc1ccc(Cl)c(Cl)c1 | 37.8 µM (active) | > 100 µM (inactive) | 10.4 µM (active) | > 100 µM (inactive) |  | EC50 [8]: > 260 µM (inconclusive)
